# In patent US20230121313A1 (priority 2019, published 2023):
# Structures can show the parent of a compound that is named as a salt.
# Assays:
# [1] = Solubility of esketamine HCl; conditions: for solubility: pH 4.5, aqueous buffer
# Description: The clinical investigational product is an aqueous solution of the drug substance, esketamine hydrochloride (HCl). This formulation is administered intranasally to patients using a dual nasal spray device, which delivers one spray into each nostril. […] The formulation was stored at 37° C. for stability reasons until dosing.
# [2] = Description: This example provides an LC-MS/MS method for the determination of ketamine and norketamine in sodium heparin human plasma using ketamine-d4 and norketamine-d4 as the respective internal standards (IS).
# Retention time and peak area were determined by Analyst® Data Acquisition/Processing Software (Version 1.4.2). Analyte concentrations were obtained from a calibration curve constructed by plotting the peak area ratio versus the concentration using Watson LIMS (Version 7.3). Watson LIMS and Microsoft Office Excel were used for statistical calculations. When Office Excel was used the calculations were 100% audited. Concentrations were calculated using linear regression according to the following equation: […]
# Selectivity is defined as the ability of a chromatographic method to measure a response from the analyte without interference from the biological matrix. This was accomplished by evaluating six individual lots of human plasma prepared as blank and at the lower limit of quantitation (LLOQ, 0.500 ng/mL).
# The matrix effect is defined as the suppression or enhancement of ionization of analytes by the presence of matrix components in the biological samples. See, e.g., C. T. Viswanathan, “Quantitative Bioanalytical Methods Validation and Implementation: Best Practices for Chromatographic and Ligand Binding Assays,” Pharmaceutical Research, Vol. 24, No. 10, October 2007, p. 1969. The matrix effect was evaluated by extracting single replicates of six lots of blank human plasma and spiking each lot at the Low and High QC concentration levels (1.50 ng/mL and 375 ng/mL) post extraction. The area ratios of the six lots of post-extraction spiked plasma samples were compared to the mean area ratio obtained from three replicates of the neat solution prepared at the same concentration level in purified water.
# The linearity of the method was evaluated at a linear range of 0.500/0.500-500/500 ng/mL for ketamine/norketamine in human plasma. Linear regression (with a weighting factor of 1/x2) was used to produce the best fit for the concentration-detector response relationship for ketamine and norketamine in human plasma.
# The validation was conducted with a target LLOQ of 0.500 ng/mL for ketamine and norketamine in human plasma. To evaluate the sensitivity, six QC samples prepared at the LLOQ were analyzed during three individual batch runs as part of the intra-run and inter-run accuracy and precision for the method. The concentrations were calculated with the calibration curve.
# The intra-run and inter-run accuracy and precision of the method were investigated at four different QC concentration levels (0.500 ng/mL (LLOQ), 1.50 ng/mL, 80.0 ng/mL, and 375 ng/mL).
# Recoveries were calculated according to the following formula: […]
# To assess the reinjection reproducibility, an analyte batch containing a standard curve and QC samples was reinjected after being kept at room temperature for 161.5 hours.
Structure (SMILES),solubility ([1]; aqueous solution),"Maximum solubility expressed as esketamine base ([1]; room temperature, pH 4.5, factor 1.15)",solubility ([1]; water),QC sample freeze/thaw stability ([2]; freeze (−20° C.)/thaw (room temperature)),QC sample long-term storage stability ([2]; human plasma QC sample at −20° C.),"QC sample bench-top stability ([2]; human plasma QC sample, room temperature)"
"CN[C@]1(c2ccccc2Cl)CCCCC1=O [esketamine HCl, (S)-2-(2-chlorophenyl)-2-(methylamino)cyclohexanone hydrochloride]",207 mg/mL,180 mg esketamine base/mL,180 mg/mL,–,–,–
"CN[C@]1(c2ccccc2Cl)CCCCC1=O [esketamine, (S)-2-(2-chlorophenyl)-2-(methylamino)cyclohexanone]",–,–,–,3 freeze (−20° C.)/thaw (room temperature) cycles,707 days at −20 °C,18 hours at room temperature
